According to the supplement of paper PMC10307832:

Key:
Test in all cases: relative viability (nuclei count vs DMSO), 5 days (fraction); higher = more cells survive
Alpelisib + Linsitinib = compound: Cc1nc(NC(=O)N2CCC[C@H]2C(N)=O)sc1-c1ccnc(C(C)(C)C(F)(F)F)c1 [Alpelisib] + C[C@]1(O)C[C@@H](c2nc(-c3ccc4ccc(-c5ccccc5)nc4c3)c3c(N)nccn32)C1 [Linsitinib] (partner 1 µM)
Outline: (§1)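 A single step with final 0.05% Triton X-100, 1% formaldehyde and 1 ug/ml Hoechst fixed the cells and stained nuclei 5 days after treatment. Lung cancer cell lines in 1536-well plates had been treated by pin tool the day after seeding with one drug alone or a fixed anchor-drug dose plus five library-drug doses (not always all listed) in √10 steps, and nuclei were counted on 4× images. Relative viability is the ratio of nuclei in treated wells to nuclei in vehicle wells, taken as the median of duplicate plates.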

Alpelisib + Foretinib = compound: Cc1nc(NC(=O)N2CCC[C@H]2C(N)=O)sc1-c1ccnc(C(C)(C)C(F)(F)F)c1 [Alpelisib] + COc1cc2c(Oc3ccc(NC(=O)C4(C(=O)Nc5ccc(F)cc5)CC4)cc3F)ccnc2cc1OCCCN1CCOCC1 [Foretinib] (partner 0.25 µM)
Outline: as §1

OSI-027 + Olaparib = compound: COc1cccc2cc(-c3nc([C@H]4CC[C@H](C(=O)O)CC4)n4ncnc(N)c34)[nH]c12 [OSI-027] + O=C(c1cc(Cc2n[nH]c(=O)c3ccccc23)ccc1F)N1CCN(C(=O)C2CC2)CC1 [Olaparib] (partner 8 µM)
Outline: as §1

Alpelisib + AZD7762 = compound: Cc1nc(NC(=O)N2CCC[C@H]2C(N)=O)sc1-c1ccnc(C(C)(C)C(F)(F)F)c1 [Alpelisib] + NC(=O)Nc1cc(-c2cccc(F)c2)sc1C(=O)N[C@H]1CCCNC1 [AZD7762] (partner 0.2 µM)
Outline: as §1

Cell Line	relative viability (Alpelisib + Linsitinib; first compound 0.04 µM)	relative viability (Alpelisib + Linsitinib; first compound 0.1265 µM)	relative viability (Alpelisib + Linsitinib; first compound 0.4 µM)	relative viability (Alpelisib + Linsitinib; first compound 1.265 µM)	relative viability (Alpelisib + Linsitinib; first compound 4 µM)	relative viability (Alpelisib + Foretinib; first compound 0.04 µM)	relative viability (Alpelisib + Foretinib; first compound 0.1265 µM)	relative viability (Alpelisib + Foretinib; first compound 0.4 µM)	relative viability (Alpelisib + Foretinib; first compound 1.265 µM)	relative viability (Alpelisib + Foretinib; first compound 4 µM)	relative viability (OSI-027 + Olaparib; first compound 0.01 µM)	relative viability (OSI-027 + Olaparib; first compound 0.03162 µM)	relative viability (OSI-027 + Olaparib; first compound 0.1 µM)	relative viability (OSI-027 + Olaparib; first compound 0.3162 µM)	relative viability (OSI-027 + Olaparib; first compound 1 µM)	relative viability (Alpelisib + AZD7762; first compound 0.04 µM)	relative viability (Alpelisib + AZD7762; first compound 0.1265 µM)	relative viability (Alpelisib + AZD7762; first compound 0.4 µM)	relative viability (Alpelisib + AZD7762; first compound 1.265 µM)	relative viability (Alpelisib + AZD7762; first compound 4 µM)
LCLC-97TM1	0.167	0.167	0.192	0.157	0.16	0.879	0.913	0.883	0.73	0.449	0.59	0.438	0.325	0.281	0.347	0.165	0.305	0.34	0.289	0.166
LCLC-103H	1.07	1.19	1.25	0.892	0.76	0.67	0.758	0.652	0.567	0.471	0.731	0.753	0.749	0.702	0.817	0.72	0.872	0.631	0.61	0.591
LK-2	0.385	0.574	0.549	0.46	0.687	1.07	1.19	1.28	0.906	0.932	0.611	0.642	0.654	0.476	0.173	0.402	0.253	0.442	0.209	0.123
LOU-NH91	0.989	0.828	0.782	0.735	0.653	0.933	0.853	0.81	0.738	0.754	0.91	0.907	0.844	0.843	0.638	0.735	0.608	0.663	0.556	0.543
LU99A	0.501	0.477	0.548	0.427	0.311	0.746	0.832	0.722	0.661	0.503	0.279	0.231	0.251	0.201	0.2	0.335	0.361	0.408	0.365	0.398
LXF-289	0.935	0.952	1.05	0.952	0.996	0.951	1	1.08	0.909	0.764	1.07	1.05	1.13	0.971	0.625	1.05	1.1	1.21	1.18	1.27
NCI-H23	0.527	0.576	0.672	0.524	0.513	0.859	0.935	0.977	0.743	0.621	0.339	0.341	0.3	0.141	0.188	0.23	0.211	0.396	0.154	0.224
NCI-H322M	0.914	0.953	0.868	0.836	0.75	0.909	0.867	0.927	0.619	0.678	0.818	0.718	0.813	0.666	0.505	0.594	0.556	0.47	0.424	0.458
